Assay results reported in patent US20120270237A9, “METHODS FOR THE IDENTIFICATION OF KINASE INTERACTING MOLECULES AND FOR THE PURIFICATION OF KINASE PROTEINS” (Cellzone AG, priority 2009, published 2012).

Key:
Assay in all cases: Kinobeads competition binding, HL60 cell lysate
Design in all cases: endogenous in cells
Settings in all cases: 10 μM free compound
BTK = BTK (Homo sapiens, UniProt Q06187)
Procedure, shortened: (§1)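 Free compound 10 μM → HL60 lysate; affinity matrix with same compound immobilized, 2 h 4 °C; SDS elution, SDS-PAGE, in-gel trypsin; iTRAQ 114/117 labels vs 0.5% DMSO control; nano-LC-MS/MS, reporter-ion quantitation.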

CDK2 = CDK2 (Homo sapiens, UniProt P24941)
Procedure, shortened: as §1

CaMKK2 = CaMKK2 (Homo sapiens, UniProt Q96RR4)
CaMKK2, sequence (Q96RR4 whole entry): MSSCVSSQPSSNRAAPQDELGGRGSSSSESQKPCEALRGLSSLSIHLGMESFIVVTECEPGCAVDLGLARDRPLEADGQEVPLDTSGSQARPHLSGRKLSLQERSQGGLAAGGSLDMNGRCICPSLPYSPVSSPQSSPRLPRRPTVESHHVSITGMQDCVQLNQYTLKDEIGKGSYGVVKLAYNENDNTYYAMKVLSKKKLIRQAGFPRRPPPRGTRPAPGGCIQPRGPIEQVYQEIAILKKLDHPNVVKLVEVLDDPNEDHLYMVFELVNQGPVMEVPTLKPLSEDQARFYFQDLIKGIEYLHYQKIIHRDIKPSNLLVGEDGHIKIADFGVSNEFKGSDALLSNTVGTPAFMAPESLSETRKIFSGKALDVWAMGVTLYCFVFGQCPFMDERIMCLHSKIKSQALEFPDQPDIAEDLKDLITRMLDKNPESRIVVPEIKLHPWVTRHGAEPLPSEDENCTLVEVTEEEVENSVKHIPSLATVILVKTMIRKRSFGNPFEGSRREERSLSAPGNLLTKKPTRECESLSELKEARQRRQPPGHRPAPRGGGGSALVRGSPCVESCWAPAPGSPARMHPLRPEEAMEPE
Procedure, shortened: as §1

Erk2 = Erk2 (Homo sapiens, UniProt P28482)
Procedure, shortened: as §1

MAP3K3 = MAP3K3 (Homo sapiens, UniProt Q99759)
MAP3K3, sequence (Q99759 whole entry): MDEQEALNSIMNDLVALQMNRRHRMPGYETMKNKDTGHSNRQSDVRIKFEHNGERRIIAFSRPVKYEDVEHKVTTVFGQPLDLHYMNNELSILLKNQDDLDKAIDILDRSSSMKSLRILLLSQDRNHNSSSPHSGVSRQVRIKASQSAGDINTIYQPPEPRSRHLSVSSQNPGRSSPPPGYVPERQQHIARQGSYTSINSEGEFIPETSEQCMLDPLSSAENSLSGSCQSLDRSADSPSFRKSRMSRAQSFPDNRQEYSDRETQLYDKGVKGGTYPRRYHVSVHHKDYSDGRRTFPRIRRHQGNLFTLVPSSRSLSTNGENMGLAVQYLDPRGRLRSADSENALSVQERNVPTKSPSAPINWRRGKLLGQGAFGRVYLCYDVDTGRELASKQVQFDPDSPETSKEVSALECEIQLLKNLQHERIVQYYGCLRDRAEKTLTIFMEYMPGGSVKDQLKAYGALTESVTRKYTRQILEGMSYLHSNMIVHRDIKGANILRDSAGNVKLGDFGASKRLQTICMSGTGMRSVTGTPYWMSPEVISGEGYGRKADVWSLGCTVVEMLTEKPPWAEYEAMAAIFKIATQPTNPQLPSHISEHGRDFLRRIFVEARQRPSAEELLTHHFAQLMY
Procedure, shortened: as §1

MLK3 = MLK3 (Homo sapiens, UniProt Q16584)
Procedure, shortened: as §1

PKCa = PKCa (Homo sapiens, UniProt P17252)
Procedure, shortened: as §1

PKN2 = PKN2 (Homo sapiens, UniProt Q16513)
Procedure, shortened: as §1

PLK1 = PLK1 (Homo sapiens, UniProt P53350)
PLK1, sequence (P53350 whole entry): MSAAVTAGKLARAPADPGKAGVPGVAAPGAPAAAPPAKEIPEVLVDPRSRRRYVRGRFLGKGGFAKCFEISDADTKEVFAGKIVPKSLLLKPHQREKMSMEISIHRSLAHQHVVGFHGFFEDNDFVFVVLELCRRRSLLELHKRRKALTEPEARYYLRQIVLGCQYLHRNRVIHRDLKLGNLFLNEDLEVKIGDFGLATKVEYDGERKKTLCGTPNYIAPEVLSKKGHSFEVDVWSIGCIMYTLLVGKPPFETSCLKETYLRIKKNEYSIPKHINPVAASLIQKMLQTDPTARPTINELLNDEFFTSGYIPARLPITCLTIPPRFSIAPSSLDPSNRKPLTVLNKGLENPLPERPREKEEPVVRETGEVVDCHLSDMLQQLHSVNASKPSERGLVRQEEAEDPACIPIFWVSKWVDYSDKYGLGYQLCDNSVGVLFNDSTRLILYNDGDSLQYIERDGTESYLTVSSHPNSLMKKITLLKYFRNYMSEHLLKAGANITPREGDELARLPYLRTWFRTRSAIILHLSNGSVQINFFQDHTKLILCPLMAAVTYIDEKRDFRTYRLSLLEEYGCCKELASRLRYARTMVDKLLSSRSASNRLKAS
Procedure, shortened: as §1

PYK2 = PYK2 (Homo sapiens, UniProt Q14289)
Procedure, shortened: as §1

RSK2 = RSK2 (Homo sapiens, UniProt P51812)
RSK2, sequence (P51812 whole entry): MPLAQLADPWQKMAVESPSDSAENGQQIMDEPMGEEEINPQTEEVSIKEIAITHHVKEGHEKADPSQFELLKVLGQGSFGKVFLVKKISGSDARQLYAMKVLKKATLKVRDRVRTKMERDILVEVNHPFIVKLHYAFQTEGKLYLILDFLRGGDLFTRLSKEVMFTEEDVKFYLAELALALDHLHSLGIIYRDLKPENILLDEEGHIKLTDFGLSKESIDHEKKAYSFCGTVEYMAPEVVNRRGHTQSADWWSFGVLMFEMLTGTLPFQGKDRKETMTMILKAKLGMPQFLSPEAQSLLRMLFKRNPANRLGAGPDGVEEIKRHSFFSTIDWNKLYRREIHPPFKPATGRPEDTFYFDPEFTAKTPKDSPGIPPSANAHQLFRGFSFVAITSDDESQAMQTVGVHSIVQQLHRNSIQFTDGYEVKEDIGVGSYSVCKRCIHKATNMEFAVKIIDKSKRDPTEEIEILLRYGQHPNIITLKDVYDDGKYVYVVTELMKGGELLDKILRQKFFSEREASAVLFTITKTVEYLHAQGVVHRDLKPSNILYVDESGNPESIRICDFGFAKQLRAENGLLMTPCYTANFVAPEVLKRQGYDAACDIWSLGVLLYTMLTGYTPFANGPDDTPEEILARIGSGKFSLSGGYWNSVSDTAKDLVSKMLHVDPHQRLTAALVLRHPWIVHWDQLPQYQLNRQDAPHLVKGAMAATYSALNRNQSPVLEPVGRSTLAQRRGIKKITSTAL
Procedure, shortened: as §1

SLK = SLK (Homo sapiens, UniProt Q9H2G2)
SLK, sequence (Q9H2G2 whole entry): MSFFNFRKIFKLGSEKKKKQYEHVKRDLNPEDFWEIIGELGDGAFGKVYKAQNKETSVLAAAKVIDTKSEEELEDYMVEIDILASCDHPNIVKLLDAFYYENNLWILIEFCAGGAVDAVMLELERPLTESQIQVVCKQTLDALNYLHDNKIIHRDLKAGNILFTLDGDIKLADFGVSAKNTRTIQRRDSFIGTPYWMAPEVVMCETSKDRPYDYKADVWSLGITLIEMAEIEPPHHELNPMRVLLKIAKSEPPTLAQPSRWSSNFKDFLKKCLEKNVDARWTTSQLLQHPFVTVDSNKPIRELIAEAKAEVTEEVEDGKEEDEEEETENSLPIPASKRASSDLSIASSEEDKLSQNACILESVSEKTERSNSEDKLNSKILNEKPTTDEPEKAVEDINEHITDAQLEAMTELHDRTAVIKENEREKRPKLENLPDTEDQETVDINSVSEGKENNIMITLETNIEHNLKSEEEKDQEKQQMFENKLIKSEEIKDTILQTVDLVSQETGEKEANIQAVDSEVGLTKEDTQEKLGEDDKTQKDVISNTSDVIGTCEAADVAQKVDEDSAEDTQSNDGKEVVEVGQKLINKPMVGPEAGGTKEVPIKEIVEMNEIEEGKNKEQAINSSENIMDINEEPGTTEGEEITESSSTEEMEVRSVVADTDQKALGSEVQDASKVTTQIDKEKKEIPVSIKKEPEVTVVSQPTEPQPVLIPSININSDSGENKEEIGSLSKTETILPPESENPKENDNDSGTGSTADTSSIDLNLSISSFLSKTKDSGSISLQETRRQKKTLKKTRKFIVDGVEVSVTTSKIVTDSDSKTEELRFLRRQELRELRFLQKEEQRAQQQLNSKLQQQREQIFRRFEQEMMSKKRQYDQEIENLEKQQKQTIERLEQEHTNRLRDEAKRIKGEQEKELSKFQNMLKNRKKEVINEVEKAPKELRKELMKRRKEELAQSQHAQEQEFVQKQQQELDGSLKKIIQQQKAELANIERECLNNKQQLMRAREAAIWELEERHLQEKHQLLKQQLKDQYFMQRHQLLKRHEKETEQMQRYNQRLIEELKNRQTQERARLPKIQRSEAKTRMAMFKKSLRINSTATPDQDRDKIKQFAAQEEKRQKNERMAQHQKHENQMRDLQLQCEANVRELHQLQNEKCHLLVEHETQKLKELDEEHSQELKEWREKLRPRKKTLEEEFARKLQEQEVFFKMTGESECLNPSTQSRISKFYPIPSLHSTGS
Procedure, shortened: as §1

ULK3 = target: T1, ULK3 (Homo sapiens, UniProt Q6PHR2)
T1 sequence (Q6PHR2 1-472): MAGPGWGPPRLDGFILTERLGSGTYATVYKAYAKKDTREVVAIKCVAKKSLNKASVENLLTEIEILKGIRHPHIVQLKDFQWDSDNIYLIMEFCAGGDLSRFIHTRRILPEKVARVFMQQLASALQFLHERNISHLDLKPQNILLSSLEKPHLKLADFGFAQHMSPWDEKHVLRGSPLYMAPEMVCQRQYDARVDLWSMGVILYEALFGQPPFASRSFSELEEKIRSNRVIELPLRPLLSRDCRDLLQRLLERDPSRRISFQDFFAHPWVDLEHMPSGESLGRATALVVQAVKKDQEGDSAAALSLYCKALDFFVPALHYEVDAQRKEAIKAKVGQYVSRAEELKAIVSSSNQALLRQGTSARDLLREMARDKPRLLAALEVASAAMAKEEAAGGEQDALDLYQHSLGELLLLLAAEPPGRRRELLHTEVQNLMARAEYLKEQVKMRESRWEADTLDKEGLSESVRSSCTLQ
Procedure, shortened: as §1

Wee1 = Wee1 (Homo sapiens, UniProt P30291)
Procedure, shortened: as §1

YES = YES (Homo sapiens, UniProt P07947)
YES, sequence (P07947 whole entry): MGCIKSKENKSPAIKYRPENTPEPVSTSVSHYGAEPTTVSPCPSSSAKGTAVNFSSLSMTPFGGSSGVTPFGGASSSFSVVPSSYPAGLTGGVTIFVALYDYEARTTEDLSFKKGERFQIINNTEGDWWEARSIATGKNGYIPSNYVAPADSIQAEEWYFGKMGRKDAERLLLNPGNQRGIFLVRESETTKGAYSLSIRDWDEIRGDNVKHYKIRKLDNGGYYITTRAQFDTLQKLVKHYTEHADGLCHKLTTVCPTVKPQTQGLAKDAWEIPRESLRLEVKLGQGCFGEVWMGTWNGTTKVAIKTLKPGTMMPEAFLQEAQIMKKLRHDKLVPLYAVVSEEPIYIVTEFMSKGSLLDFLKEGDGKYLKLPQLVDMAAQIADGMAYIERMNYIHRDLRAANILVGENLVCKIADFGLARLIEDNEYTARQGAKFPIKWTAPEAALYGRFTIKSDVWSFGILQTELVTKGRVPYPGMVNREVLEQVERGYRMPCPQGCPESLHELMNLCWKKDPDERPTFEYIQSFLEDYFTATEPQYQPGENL
Procedure, shortened: as §1

With `CS(=O)(=O)Nc1ccccc1Nc1nc(Nc2cccc(OCCN)c2)ncc1Cl` [CZC31326, N-(2-(2-(3-(2-aminoethoxy)phenylamino)-5-chloropyrimidin-4-ylamino)phenyl)methanesulfonamide] the Competition % (BTK) was 97.1%, the Competition % (CDK2) was 95.1% and the inhibition at 10 µM (CaMKK2) was 98.1%. The inhibition at 10 µM (Erk2) was 75.8%, the inhibition at 10 µM (MAP3K3) was 97.6% and the Competition % (MLK3) was 96.5%. For the same molecule, the inhibition at 10 µM (PKCa) was 96.2%, the inhibition at 10 µM (PKN2) was 93.9% and the inhibition at 10 µM (PLK1) was 97.8%. For the same molecule, the inhibition at 10 µM (PYK2) was 95.7%, the inhibition at 10 µM (RSK2) was 96.7% and the inhibition at 10 µM (SLK) was 97.5%. For the same molecule, the Competition % (ULK3) was 97.7%, the inhibition at 10 µM (Wee1) was 98.2% and the inhibition at 10 µM (YES) was 91.1%.
